Experimental findings from US20040235906A1, “Substituted amine derivatives and their use as monoamine neurotransmitter re-up-take inhibitors” (priority 2001, published 2004) are described below.

Data set [1] concerns the target T1, reuptake of dopamine(DA) in synaptosomes (Rattus norvegicus, UniProt P23977).
T1 construct: in synaptosomes as described in WO 97/16451; from tissue
Description: Inhibition of dopamine (DA) reuptake in synaptosomes. Type of data set: biochemical. On the procedure: (§1) A number of compounds were tested for their ability to inhibit the reuptake of the monoamine neurotransmitters dopamine(DA) noradrenaline(NA) and serotonine(5-HT) in synaptosomes as described in WO 97/16451.
(§2) The test values are given as IC50 (the concentration (μM) of the test substance which inhibits the specific binding of ^3H-DA, ^3H-NA, or ^3H-5-HT by 50%).

The target of data set [2] is T2, reuptake of serotonine(5-HT) in synaptosomes (Rattus norvegicus, UniProt P31652).
T2 construct: in synaptosomes as described in WO 97/16451; from tissue
Put plainly: Inhibition of serotonine (5-HT) reuptake in synaptosomes. Type of data set: biochemical. On the procedure: as §1, §2

[3] abbreviates: synaptosomes, 3H-DA, read-out: DA-uptake IC50.

Structures can show the parent of a compound that is named as a salt. Where two headings read alike, the source gives them in different places.

T2 sequence (P31652 whole entry): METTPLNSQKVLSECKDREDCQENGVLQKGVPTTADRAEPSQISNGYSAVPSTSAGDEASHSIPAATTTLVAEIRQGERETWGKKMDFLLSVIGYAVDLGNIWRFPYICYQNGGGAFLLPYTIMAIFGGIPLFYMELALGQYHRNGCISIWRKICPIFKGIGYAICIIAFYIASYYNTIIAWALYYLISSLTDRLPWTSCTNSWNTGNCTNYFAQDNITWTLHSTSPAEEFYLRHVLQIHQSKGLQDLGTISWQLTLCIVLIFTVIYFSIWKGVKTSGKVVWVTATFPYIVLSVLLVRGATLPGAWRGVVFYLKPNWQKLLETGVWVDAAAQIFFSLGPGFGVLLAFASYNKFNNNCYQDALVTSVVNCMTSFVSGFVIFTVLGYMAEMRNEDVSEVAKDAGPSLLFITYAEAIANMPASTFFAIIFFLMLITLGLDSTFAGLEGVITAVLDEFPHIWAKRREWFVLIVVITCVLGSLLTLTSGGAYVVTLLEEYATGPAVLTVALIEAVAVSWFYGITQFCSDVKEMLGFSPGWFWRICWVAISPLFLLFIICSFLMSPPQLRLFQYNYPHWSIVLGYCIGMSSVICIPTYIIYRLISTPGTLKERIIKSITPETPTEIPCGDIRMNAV
T1 sequence (P23977 whole entry): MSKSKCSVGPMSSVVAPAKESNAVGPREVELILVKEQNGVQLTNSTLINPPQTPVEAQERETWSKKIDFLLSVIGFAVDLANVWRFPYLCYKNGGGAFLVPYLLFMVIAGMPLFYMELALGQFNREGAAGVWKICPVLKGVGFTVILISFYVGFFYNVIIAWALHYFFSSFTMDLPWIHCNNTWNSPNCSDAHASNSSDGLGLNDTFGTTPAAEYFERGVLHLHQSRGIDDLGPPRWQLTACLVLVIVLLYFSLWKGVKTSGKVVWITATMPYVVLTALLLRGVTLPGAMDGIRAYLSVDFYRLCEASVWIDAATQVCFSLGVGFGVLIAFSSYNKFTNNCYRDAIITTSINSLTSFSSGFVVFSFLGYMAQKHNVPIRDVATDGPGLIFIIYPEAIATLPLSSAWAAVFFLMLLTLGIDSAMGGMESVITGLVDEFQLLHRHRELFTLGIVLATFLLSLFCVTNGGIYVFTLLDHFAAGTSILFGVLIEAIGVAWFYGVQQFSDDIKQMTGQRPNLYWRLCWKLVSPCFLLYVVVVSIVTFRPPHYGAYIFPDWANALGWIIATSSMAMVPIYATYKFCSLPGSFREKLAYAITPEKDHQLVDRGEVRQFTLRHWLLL

The term melting point denotes the temperature of the solid-liquid transition. As for `CN1C2CCC1[C@H](COc1ccc(Cl)c(Cl)c1)CC2` (some centres unmarked) (as salt: fumarate), the melting point was in the range of 176 to 180 °C.

`CN1C2CCC1[C@H](COc1ccc(Cl)c(Cl)c1)[C@@H](c1ccc(Cl)c(Cl)c1)C2` (stereo partly drawn) (as salt: fumaric acid salt) [Compound 15a, (2R,3S)-2-(3,4-Dichloro-phenoxymethyl)-3-(3,4-dichloro-phenyl)-8-methyl-8-aza-bicyclo[3.2.1]octane] registered a melting point of 215.1 to 217.2 °C.

`CC(C)[C@@H]1CC2CCC([C@@H]1COc1ccc(Cl)c(Cl)c1)N2C` (stereo partly drawn) (as salt: fumaric acid salt) [Compound 16, (2R,3S)-2-(3,4-Dichloro-phenoxymethyl)-3-(2-propyl)-8-methyl-8-aza-bicyclo[3.2.1]octane fumaric acid salt] registered a melting point of 152.3 to 154.5 °C.

Broadly, the IC50 is the concentration needed to halve the response being measured. `CN1C2CCC1[C@H](COc1ccc(Cl)c(Cl)c1)[C@@H](c1ccccc1)C2` (stereo partly drawn) [Compound 13a, (2R,3S)-2-(3,4-Dichlorophenoxymethyl)-8-methyl-3-phenyl-8-aza-bicyclo[3.2.1]octane]: the IC50 in data set [1] came to 540 nM; in data set [2] it was 0.4 nM.

In the case of `CN1C2CCC1[C@H](COc1ccc(Cl)c(Cl)c1)[C@@H](c1ccc(Cl)c(Cl)c1)C2` (stereo partly drawn) [Compound 15a, (2R,3S)-2-(3,4-Dichloro-phenoxymethyl)-3-(3,4-dichloro-phenyl)-8-methyl-8-aza-bicyclo[3.2.1]octane], the IC50 was 15 nM in data set [1] and 20 nM in data set [2].

`CC(C)[C@@H]1CC2CCC([C@@H]1COc1ccc(Cl)c(Cl)c1)N2C` (stereo partly drawn) [Compound 16, (2R,3S)-2-(3,4-Dichloro-phenoxymethyl)-3-(2-propyl)-8-methyl-8-aza-bicyclo[3.2.1]octane fumaric acid salt]: the IC50 in data set [1] (setting [3]) is more than 1000 nM; in data set [2] it was 0.72 nM.

With `CC(C)C1CC2CCC(N2)C1COc1ccc(Cl)c(Cl)c1` [Compound of Example 10, (2R,3S)-2-(3,4-Dichloro-phenoxymethyl)-3-(2-propyl)-8-H-8-aza-bicyclo[3.2.1]octane fumaric acid salt], the IC50 in data set [1] (setting [3]) amounted to 260 nM; in data set [2], 9 nM.
